Test results reported in ChEMBL document CHEMBL4811216, “Chemotherapy for human schistosomiasis: how far have we come? What's new? Where do we go from here?” (RSC Med Chem, 2020).

Experiments:
Schistosoma mansoni [1] = assay: Antischistosomal activity against Schistosoma mansoni by confocal laser scanning microscopy; format: functional, organism-based
Schistosoma mansoni [2] = assay: Antischistosomal activity against Schistosoma mansoni BH assessed as worm death at 50 uM measured after 72 to 120 hrs by inverted optical microscopic method relative to control; format: functional; conditions: time 72-120 hrs
Schistosoma mansoni [3] = assay: Antischistosomal activity against adult Schistosoma mansoni assessed as worm death at 10 uM incubated for 144 hrs relative to control; format: functional
[4] = molecular target: T1, Thioredoxin glutathione reductase (Schistosoma mansoni, UniProt Q962Y6); assay: Inhibition of Schistosoma mansoni thioredoxin glutathione reductase incubated for 30 mins by DTNB assay
T1 sequence (Q962Y6 whole entry): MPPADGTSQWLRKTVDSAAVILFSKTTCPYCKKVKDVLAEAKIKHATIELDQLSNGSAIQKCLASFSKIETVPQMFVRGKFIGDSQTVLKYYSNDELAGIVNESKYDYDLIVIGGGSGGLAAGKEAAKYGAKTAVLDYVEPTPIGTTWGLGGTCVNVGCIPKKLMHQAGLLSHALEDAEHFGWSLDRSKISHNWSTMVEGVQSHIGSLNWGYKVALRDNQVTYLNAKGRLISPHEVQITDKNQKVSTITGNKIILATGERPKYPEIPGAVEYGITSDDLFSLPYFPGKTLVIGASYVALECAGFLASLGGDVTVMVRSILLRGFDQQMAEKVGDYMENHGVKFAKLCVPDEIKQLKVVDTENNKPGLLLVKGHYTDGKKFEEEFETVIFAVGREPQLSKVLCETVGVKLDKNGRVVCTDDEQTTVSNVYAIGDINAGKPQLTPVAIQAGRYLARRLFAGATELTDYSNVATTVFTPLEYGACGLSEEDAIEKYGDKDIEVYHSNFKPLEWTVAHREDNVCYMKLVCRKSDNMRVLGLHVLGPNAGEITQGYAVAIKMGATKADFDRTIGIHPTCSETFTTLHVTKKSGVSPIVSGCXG

Schistosoma japonicum [5] = assay: Antischistosomal activity against Schistosoma japonicum assessed as worm death at 10 uM incubated for 120 hrs relative to control; format: functional; conditions: for mortality at 10 µM: Schistosoma japonicum
Schistosoma haematobium [6] = assay: Antischistosomal activity against Schistosoma haematobium assessed as worm death at 10 uM incubated for 120 hrs relative to control; format: functional
Schistosoma mansoni [7] = assay: Antischistosomal activity against Schistosoma mansoni Schistosomula assessed as worm death at 10 uM incubated for 24 hrs relative to control; format: functional
Schistosoma mansoni [8] = assay: Antischistosomal activity against juvenile Schistosoma mansoni assessed as worm death at 10 uM incubated for 72 hrs relative to control; format: functional
Schistosoma mansoni [9] = assay: Antischistosomal activity against adult Schistosoma mansoni assessed as worm death at 12.5 uM incubated for 120 hrs relative to control; format: functional
Schistosoma japonicum [10] = assay: Antischistosomal activity against adult Schistosoma japonicum assessed as worm death at 12.5 uM incubated for 120 hrs relative to control; format: functional
Schistosoma mansoni [11] = assay: Antischistosomal activity against juvenile Schistosoma mansoni assessed as worm death at 12.5 uM incubated for 120 hrs relative to control; format: functional
Schistosoma mansoni [12] = assay: Antischistosomal activity against Schistosoma mansoni Schistosomula assessed as worm death at 12.5 uM incubated for 120 hrs relative to control; format: functional
Schistosoma mansoni [13] = assay: Antischistosomal activity against Schistosoma mansoni assessed as worm death at 50 uM in presence of red blood cells relative to control; format: functional
Schistosoma mansoni [14] = assay: Antischistosomal activity against juvenile Schistosoma mansoni assessed as worm death at 10 uM incubated for 24 hrs relative to control; format: functional
Schistosoma mansoni [15] = assay: Antischistosomal activity against adult Schistosoma mansoni assessed as worm death at 10 uM incubated for 120 hrs relative to control; format: functional
Schistosoma mansoni [16] = assay: Antischistosomal activity against juvenile Schistosoma mansoni assessed as worm death at 10 uM incubated for 120 hrs relative to control; format: functional
Schistosoma haematobium [17] = assay: Antischistosomal activity against Schistosoma haematobium assessed as worm death at 10 uM incubated for 144 hrs relative to control; format: functional
Schistosoma mansoni [18] = assay: Antischistosomal activity against Schistosoma mansoni schistosomula incubated for 24 hrs by celltiter-glo reagent based assay; format: functional, organism-based
Schistosoma mansoni [19] = assay: Antischistosomal activity against adult Schistosoma mansoni Puerto-Rican incubated for 7 days by stereomicroscopy; format: functional; conditions: time 7 day
[20] = molecular target: T2, ATP-diphosphohydrolase 1 (Schistosoma mansoni) (UniProt Q7YTA4); assay: Inhibition of Schistosoma mansoni ATPDase1 at 40 uM preincubated for 30 mins followed by addition of ATP/ADP by spectrophotometric method relative to control
T2 sequence (whole entry): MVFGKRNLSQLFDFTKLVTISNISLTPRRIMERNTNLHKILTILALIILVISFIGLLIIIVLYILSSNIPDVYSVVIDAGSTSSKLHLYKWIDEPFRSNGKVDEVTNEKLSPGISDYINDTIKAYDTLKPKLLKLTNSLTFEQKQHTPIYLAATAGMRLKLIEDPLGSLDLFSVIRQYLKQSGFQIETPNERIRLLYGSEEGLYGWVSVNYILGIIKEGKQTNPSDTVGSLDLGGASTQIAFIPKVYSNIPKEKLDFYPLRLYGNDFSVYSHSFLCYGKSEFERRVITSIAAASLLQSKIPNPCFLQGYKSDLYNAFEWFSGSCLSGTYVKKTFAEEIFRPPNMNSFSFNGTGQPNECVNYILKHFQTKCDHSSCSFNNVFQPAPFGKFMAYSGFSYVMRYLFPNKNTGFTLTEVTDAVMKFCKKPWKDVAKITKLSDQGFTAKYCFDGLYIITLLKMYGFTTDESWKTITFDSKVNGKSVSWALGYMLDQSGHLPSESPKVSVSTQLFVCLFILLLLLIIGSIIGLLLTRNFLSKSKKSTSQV

ATP-diphosphohydrolase 1 = molecular target: T3, ATP-diphosphohydrolase 1 (Schistosoma mansoni, UniProt Q7YTA4); assay: Inhibition of Schistosoma mansoni ATPDase1 preincubated for 30 mins followed by addition of ATP/ADP by spectrophotometric method
T3 sequence (Q7YTA4 whole entry): T2 sequence (whole entry)

Schistosoma mansoni [21] = assay: Antischistosomal activity against Schistosoma mansoni BH assessed as reduction in motor activity at 25 uM measured after 24 hrs by light microscopy relative to control; format: functional; parameters: scale not given: the % may be the effect or the level left
Schistosoma mansoni [22] = assay: Antischistosomal activity against Schistosoma mansoni BH assessed as extensive tegumental alteration at 25 uM measured after 24 hrs by light microscopy relative to control; format: functional
Schistosoma haematobium [23] = assay: Antischistosomal activity against Schistosoma haematobium assessed as worm death at 10 uM incubated for 96 hrs relative to control; format: functional
Schistosoma mansoni [24] = assay: Antischistosomal activity against Schistosoma mansoni assessed as worm death at 10 uM incubated for 72 hrs relative to control; format: functional
Schistosoma mansoni [25] = assay: Antischistosomal activity against Schistosoma mansoni assessed as worm death at 10 uM incubated for 48 hrs relative to control; format: functional
[26] = Inhibition of C-terminal His6-tagged Schistosoma mansoni NACE expressed in Pichia pastoris using 1-N6-ethenonicotinamide adenine dinucleotide as substrate by fluorometric assay
[27] = Inhibition of NACE in Schistosoma mansoni using 1-N6-ethenonicotinamide adenine dinucleotide as substrate incubated for 30 mins by fluorometric assay

COc1cc(/C=N/NC(=O)c2ccc(C(C)(C)C)cc2)ccc1O showed an IC50 (Schistosoma mansoni [1]) of 47.9 µM.
Work on O=C1CS/C(=N\N=C/c2cccc3c2OCO3)N1c1ccc(Br)cc1 yielded an Activity (Schistosoma mansoni [2]) of 83.3%.
Work on O=[N+]([O-])c1ccc2c(c1)S(=O)(=O)C=C2 yielded a mortality at 10 µM (Schistosoma mansoni [3]) of 76%, an IC50 [4] of 2.01 µM and a mortality at 10 µM (Schistosoma japonicum [5]) of 69%. For the same molecule, the mortality at 10 µM (Schistosoma haematobium [6]) was 85%, the mortality at 10 µM (Schistosoma mansoni [7]) was 100% and the mortality at 10 µM (Schistosoma mansoni [8]) was 100%.
For CCOC(=O)C(C(=O)OCC)C1=C(Br)C2=NOC3c4ccccc4C(=O)C(=C1)C23 (stereo not given), the mortality at 12.5 µM (Schistosoma mansoni [9]) was 28%, the mortality at 12.5 µM (Schistosoma japonicum [10]) was 100% and the IC50 [4] was 0.14 µM. The mortality at 12.5 µM (Schistosoma mansoni [11]) was 100% and the mortality at 12.5 µM (Schistosoma mansoni [12]) was 96%.
CC1=C(Cc2ccc(C(F)(F)F)cc2)C(=O)c2cc(C)cnc2C1=O showed an Activity (Schistosoma mansoni [13]) of 100%.
In the case of CCN(c1ccccc1)S(=O)(=O)c1ccc(NC(=O)c2nc(S(C)(=O)=O)ncc2Cl)cc1, the mortality at 10 µM (Schistosoma mansoni [14]) is reported as 100%, the IC50 [4] is reported as 0.21 µM and the mortality at 10 µM (Schistosoma mansoni [15]) is reported as 78%. For the same molecule, the mortality at 10 µM (Schistosoma japonicum [5]) was 50%, the mortality at 10 µM (Schistosoma haematobium [6]) was 94% and the mortality at 10 µM (Schistosoma mansoni [7]) was 100%.
COC(=O)CS(=O)(=O)c1nnc(C(Cc2ccccc2)NC(=O)OC(C)(C)C)o1 (stereo not given) showed an IC50 [4] of 0.33 µM, a mortality at 10 µM (Schistosoma mansoni [15]) of 62% and a mortality at 10 µM (Schistosoma japonicum [5]) of 65%. The mortality at 10 µM (Schistosoma mansoni [16]) was 39%, the mortality at 10 µM (Schistosoma haematobium [17]) was 67% and the mortality at 10 µM (Schistosoma mansoni [7]) was 99%.
COC1=C(Cc2ccc(OC)cc2)C(=O)C2=C(NCCS2(=O)=O)C1=O showed an IC50 (Schistosoma mansoni [18]) of 13.9 µM and an Activity (Schistosoma mansoni [19]) of 100%.
With COc1cc(O)cc(O)c1C(=O)/C=C/c1ccccc1 [CARDAMOMIN] the inhibition [20] was 82%, the IC50 (ATP-diphosphohydrolase 1) was 23.5 µM and the Activity (Schistosoma mansoni [21]) was 100%. The Activity (Schistosoma mansoni [22]) was 100%.
With O=c1c(Cl)c(-n2cc(CO)nn2)cnn1-c1ccccc1 the IC50 [4] was 2.84 µM, the Activity (Schistosoma haematobium [23]) was 100% and the Activity (Schistosoma japonicum [5]) was 70%. For the same molecule, the mortality at 10 µM (Schistosoma mansoni [7]) was 100%, the Activity (Schistosoma mansoni [24]) was 100% and the Activity (Schistosoma mansoni [25]) was 100%.
Molecule O=C(Nc1nc(=O)c2ccccc2s1)c1ccco1 has an IC50 [26] of 2.2 µM and an IC50 [27] of 20 µM.
